This note sets out measurements from ChEMBL document CHEMBL1129064, “Design and synthesis of 2',3'-dideoxy-2',3'-didehydro-beta-L-cytidine (beta-L-d4C) and 2',3'-dideoxy 2',3'-didehydro-beta-L-5-fluorocytidine (beta-L-Fd4C), two exceptionally potent inhibitors of human hepatitis B virus (HBV) and potent inhibitors of human immunodeficiency virus (HIV) in vitro” (1996).

Some results are limits rather than exact numbers.

Holding throughout (type): functional
Conditions in all cases: Homo sapiens, read-out: ED50 (the source's name)

Test [1] concerns HepG2. In words: Concentration required to inhibit 50% of intracellular circular replication of HBV DNA using 2215 cell line.
Test [2] has as its system CCRF-CEM. In words: In vitro concentration required to decrease 50% of mitochondrial DNA content in CEM cells.
Test [3] concerns MT2. In words: Concentration required to inhibit 50% of HIV activity in MT-2 cells.
The test system of test [4] is HepG2. In words: Concentration required to inhibit 50% of extracellular circular replication of HBV DNA using 2215 cell line.
The subject of test [5] is CCRF-CEM. In words: In vitro concentration required to inhibit 50% of CEM cell growth.

With `Nc1ccn([C@H]2C=C[C@@H](CO)O2)c(=O)n1`, the EC50 in test [1] is 0.008 µM; in test [2] it was above 20 µM; in test [3], 1 µM; in test [4], 0.01 µM; in test [5], 20 µM.
Turning to `Nc1nc(=O)n([C@@H]2CS[C@H](CO)O2)cc1F` [EMTRICITABINE], the EC50 in test [1] was 0.03 µM; in test [2], above 50 µM; in test [3] it was 2 µM; in test [4] it was 0.017 µM; in test [5], 50 µM.
For `Nc1nc(=O)n([C@@H]2C=C[C@H](CO)O2)cc1F` [ELVUCITABINE], the EC50 was 0.002 µM in test [1]; above 100 µM in test [2]; 0.09 µM in test [3]; 0.002 µM in test [4]; 7 µM in test [5].
On to `Nc1ccn([C@@H]2CC[C@H](CO)O2)c(=O)n1`, for which the EC50 was 6.2 µM in test [1]; 0.022 µM in test [2]; 1.5 µM in test [3]; 5.2 µM in test [4]; 10 µM in test [5].
Regarding `Nc1ccn([C@@H]2C=C[C@H](CO)O2)c(=O)n1`, the EC50 in test [2] was found to be 2 µM; in test [3] it was 0.7 µM; in test [4], 3 µM; in test [5], 22 µM.
For `Nc1nc(=O)n([C@@H]2CC[C@H](CO)O2)cc1F`, the EC50 is 0.036 µM in test [1]; above 100 µM in test [2]; 0.5 µM in test [3]; 0.055 µM in test [4]; 67 µM in test [5].
